These results are taken from US20230210870A1, “METHODS OF TREATING FEMALE HEALTH CONDITIONS RELATED TO SEX HORMONES” (priority 2020, published 2023).

One assay deals with T1, α4β1γ2 GABAA receptor (Homo sapiens, UniProt P18505+P48169).
T1 construct: expressed in transfected cells
Description: FLIPR modulation of GABA response in cells expressing GABAA receptor subtype. It is filed as cell-based. The following applies: in presence of GABA, — = value not measurable. As for the experimental part:
(§1) Cells expressing the indicated GABAA receptor subtype were exposed to gamma-aminobutyric acid in the presence of varying concentrations of either CV-10155 or SPNC-019, calcium flux was measured using a fluorometric imaging plate reader (FLIPR), and EC50 values for compounds were determined.

The next assay concerns the target T2, α2β2γ2 GABAA receptor (Homo sapiens, UniProt P47869+P47870).
T2 construct: expressed in transfected cells
Described as above. It is filed as cell-based. Particulars: in presence of GABA, — = value not measurable. As for the experimental part:
as §1

The target in another assay is T3, α6β3γ2 GABAA receptor (Homo sapiens, UniProt P28472+Q16445).
T3 construct: expressed in transfected cells
T3 sequence (Q16445 20-453): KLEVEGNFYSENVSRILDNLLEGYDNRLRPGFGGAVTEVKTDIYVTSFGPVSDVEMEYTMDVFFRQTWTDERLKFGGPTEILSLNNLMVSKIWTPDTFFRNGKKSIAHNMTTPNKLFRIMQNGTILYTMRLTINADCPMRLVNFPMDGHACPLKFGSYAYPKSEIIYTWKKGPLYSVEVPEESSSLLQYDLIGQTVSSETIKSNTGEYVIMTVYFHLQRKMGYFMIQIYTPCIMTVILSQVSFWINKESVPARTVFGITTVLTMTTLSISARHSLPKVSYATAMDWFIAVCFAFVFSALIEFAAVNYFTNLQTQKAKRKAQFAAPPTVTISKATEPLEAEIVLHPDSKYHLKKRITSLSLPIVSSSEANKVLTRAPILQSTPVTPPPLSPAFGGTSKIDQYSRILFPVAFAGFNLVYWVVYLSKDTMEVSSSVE
T3 sequence (P28472 26-473): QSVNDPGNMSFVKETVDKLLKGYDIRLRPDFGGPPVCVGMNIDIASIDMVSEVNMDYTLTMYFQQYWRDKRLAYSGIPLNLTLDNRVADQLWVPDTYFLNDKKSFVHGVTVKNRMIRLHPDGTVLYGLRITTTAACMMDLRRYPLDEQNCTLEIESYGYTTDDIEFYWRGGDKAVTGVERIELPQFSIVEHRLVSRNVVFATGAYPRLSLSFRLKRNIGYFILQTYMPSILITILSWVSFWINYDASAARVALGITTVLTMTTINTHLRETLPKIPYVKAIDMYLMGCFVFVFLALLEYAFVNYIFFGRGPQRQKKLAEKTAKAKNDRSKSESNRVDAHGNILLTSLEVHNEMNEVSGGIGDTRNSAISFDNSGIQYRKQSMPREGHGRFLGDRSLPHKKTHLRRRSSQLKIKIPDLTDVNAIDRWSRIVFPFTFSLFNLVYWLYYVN
T3 sequence (P18507 40-475 partner): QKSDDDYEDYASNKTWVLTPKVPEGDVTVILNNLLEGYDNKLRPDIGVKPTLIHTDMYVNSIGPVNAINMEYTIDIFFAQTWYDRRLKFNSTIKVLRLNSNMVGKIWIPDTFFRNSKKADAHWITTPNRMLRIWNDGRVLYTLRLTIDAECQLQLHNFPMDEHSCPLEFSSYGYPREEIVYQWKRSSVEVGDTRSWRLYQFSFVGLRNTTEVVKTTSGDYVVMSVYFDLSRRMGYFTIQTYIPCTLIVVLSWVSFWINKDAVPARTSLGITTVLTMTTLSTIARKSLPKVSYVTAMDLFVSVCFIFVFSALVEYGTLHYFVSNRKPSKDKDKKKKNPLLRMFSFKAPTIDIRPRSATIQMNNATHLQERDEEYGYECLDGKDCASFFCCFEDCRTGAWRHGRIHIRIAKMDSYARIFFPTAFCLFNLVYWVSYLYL
The description is as above. It is filed as cell-based. The following applies: in presence of GABA, — = value not measurable. How it is done:
as §1

The target of another assay is T4, α3β3γ2 GABAA receptor (Homo sapiens, UniProt P28472+P34903).
T4 construct: expressed in transfected cells
Described as above. The assay is classed as cell-based. The following applies: in presence of GABA, — = value not measurable. As for the experimental part: as §1

For another assay, the target named is T5, α4β3γ2 GABAA receptor (Homo sapiens, UniProt P28472+P48169).
T5 construct: expressed in transfected cells
T5 sequence (P48169 36-554): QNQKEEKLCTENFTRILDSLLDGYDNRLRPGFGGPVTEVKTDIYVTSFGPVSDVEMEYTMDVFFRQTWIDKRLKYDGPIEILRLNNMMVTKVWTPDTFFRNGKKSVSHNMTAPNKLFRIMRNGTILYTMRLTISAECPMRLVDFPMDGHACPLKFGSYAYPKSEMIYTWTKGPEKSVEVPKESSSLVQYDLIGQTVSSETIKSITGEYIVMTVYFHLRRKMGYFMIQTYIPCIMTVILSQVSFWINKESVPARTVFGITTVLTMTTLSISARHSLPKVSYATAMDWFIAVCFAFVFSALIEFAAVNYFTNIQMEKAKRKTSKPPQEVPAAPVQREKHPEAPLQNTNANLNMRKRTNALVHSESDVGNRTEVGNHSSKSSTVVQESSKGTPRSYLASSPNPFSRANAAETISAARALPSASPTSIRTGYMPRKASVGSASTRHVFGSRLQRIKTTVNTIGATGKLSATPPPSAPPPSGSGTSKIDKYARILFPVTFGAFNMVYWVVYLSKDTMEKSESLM
T5 sequence (P28472 26-473): as the sequence (P28472 26-473) above
T5 sequence (P18507 40-475 partner): as the sequence (P18507 40-475 partner) above
The description is as above. Particulars: in presence of GABA, — = value not measurable. It is filed as cell-based. As for the experimental part: as §1

The target in another assay is T6, α3β2γ2 GABAA receptor (Homo sapiens, UniProt P34903+P47870).
T6 construct: expressed in transfected cells
The assay is described as above. The assay is classed as cell-based. Particulars: in presence of GABA, — = value not measurable. How it is done:
as §1

In the next assay the target is T7, α1β3γ2 GABAA receptor (Homo sapiens, UniProt P14867+P28472).
T7 construct: expressed in transfected cells
T7 sequence (P14867 28-456): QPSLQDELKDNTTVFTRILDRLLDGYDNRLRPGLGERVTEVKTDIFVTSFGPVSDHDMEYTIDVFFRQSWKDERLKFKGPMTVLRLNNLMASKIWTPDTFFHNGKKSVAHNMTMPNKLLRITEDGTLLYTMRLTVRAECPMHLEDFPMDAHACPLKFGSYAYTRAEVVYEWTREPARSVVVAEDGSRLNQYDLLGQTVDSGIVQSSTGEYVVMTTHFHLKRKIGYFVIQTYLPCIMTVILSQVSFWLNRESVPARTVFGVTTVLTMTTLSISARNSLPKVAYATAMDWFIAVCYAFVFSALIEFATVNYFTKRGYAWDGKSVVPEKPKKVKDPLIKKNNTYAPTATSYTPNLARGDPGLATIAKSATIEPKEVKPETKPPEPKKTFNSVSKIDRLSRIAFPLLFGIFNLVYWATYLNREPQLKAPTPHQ
T7 sequence (P28472 26-473): as the sequence (P28472 26-473) above
T7 sequence (P18507 40-475 partner): as the sequence (P18507 40-475 partner) above
Described as above. The assay is classed as cell-based. Particulars: in presence of GABA, — = value not measurable. How it is done: as §1

Another assay deals with T8, α1β1γ2 GABAA receptor (Homo sapiens, UniProt P14867+P18505).
T8 construct: expressed in transfected cells
T8 sequence (P14867 28-456): as the sequence (P14867 28-456) above
T8 sequence (P18505 26-474): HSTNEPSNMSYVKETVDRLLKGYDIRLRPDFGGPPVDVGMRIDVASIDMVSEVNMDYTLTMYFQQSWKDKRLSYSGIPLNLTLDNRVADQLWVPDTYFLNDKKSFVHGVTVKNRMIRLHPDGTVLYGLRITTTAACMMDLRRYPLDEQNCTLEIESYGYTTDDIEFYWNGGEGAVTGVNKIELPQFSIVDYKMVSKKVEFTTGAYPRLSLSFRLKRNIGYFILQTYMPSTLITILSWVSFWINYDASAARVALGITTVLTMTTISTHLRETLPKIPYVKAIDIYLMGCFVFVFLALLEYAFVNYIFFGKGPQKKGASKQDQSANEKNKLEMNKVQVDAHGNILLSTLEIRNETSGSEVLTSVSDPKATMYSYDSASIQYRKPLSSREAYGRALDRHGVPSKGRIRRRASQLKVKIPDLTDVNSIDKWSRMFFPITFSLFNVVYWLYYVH
T8 sequence (P18507 40-475 partner): as the sequence (P18507 40-475 partner) above
The assay is described as above. It is filed as cell-based. The following applies: in presence of GABA, — = value not measurable. How it is done: as §1

The target of assay [1] is T9, α1β2γ2 GABAA receptor (Homo sapiens, UniProt P14867+P47870).
T9 construct: expressed in transfected cells
T9 sequence (P14867 28-456): as the sequence (P14867 28-456) above
T9 sequence (P47870 25-512 limits assumed): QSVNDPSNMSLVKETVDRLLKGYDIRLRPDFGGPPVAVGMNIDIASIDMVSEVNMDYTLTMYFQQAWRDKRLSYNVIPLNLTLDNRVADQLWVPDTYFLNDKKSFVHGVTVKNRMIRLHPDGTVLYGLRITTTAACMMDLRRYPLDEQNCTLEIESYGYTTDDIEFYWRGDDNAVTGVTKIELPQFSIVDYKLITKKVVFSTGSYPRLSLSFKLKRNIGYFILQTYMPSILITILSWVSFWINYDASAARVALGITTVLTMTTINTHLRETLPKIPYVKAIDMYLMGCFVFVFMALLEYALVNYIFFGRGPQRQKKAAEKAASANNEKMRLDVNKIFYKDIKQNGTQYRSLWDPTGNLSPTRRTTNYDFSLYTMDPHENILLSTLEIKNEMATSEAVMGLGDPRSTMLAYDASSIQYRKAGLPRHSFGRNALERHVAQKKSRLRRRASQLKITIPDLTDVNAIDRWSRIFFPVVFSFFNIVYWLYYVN
T9 sequence (P18507 40-475 partner): as the sequence (P18507 40-475 partner) above
Described as above. The assay is classed as cell-based. Particulars: in presence of GABA, — = value not measurable. As for the experimental part:
as §1

The target in the next assay is T10, α6β1γ2 GABAA receptor (Homo sapiens, UniProt P18505+Q16445).
T10 construct: expressed in transfected cells
The description is as above. It is filed as cell-based. The following applies: in presence of GABA, — = value not measurable. As for the experimental part:
as §1

The next assay deals with T11, α2β3γ2 GABAA receptor (Homo sapiens, UniProt P28472+P47869).
T11 construct: expressed in transfected cells
Described as above. The assay is classed as cell-based. Particulars: in presence of GABA, — = value not measurable. How it is done: as §1

The next assay deals with T12, α5β3γ2 GABAA receptor (Homo sapiens, UniProt P28472+P31644).
T12 construct: expressed in transfected cells
T12 sequence (P31644 32-462): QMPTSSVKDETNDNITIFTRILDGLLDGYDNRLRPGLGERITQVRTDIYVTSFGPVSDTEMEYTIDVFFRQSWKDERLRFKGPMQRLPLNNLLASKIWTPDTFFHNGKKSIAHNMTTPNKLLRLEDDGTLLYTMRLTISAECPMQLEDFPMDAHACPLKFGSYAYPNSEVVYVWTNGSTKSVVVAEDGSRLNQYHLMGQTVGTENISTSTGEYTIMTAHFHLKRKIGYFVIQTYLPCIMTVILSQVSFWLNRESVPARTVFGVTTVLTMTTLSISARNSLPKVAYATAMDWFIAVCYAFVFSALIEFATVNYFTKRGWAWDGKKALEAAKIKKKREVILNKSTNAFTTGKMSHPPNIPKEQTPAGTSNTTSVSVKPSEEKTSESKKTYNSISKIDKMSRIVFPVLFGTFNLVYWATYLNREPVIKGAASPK
T12 sequence (P28472 26-473): as the sequence (P28472 26-473) above
T12 sequence (P18507 40-475 partner): as the sequence (P18507 40-475 partner) above
Described as above. It is filed as cell-based. Particulars: in presence of GABA, — = value not measurable. As for the experimental part: as §1

A further assay concerns the target T13, α5β2γ2 GABAA receptor (Homo sapiens, UniProt P31644+P47870).
T13 construct: expressed in transfected cells
The description is as above. The assay is classed as cell-based. Particulars: in presence of GABA, — = value not measurable. How it is done: as §1

The target of the next assay is T14, α2β1γ2 GABAA receptor (Homo sapiens, UniProt P18505+P47869).
T14 construct: expressed in transfected cells
The description is as above. The assay is classed as cell-based. The following applies: in presence of GABA, — = value not measurable. How it is done: as §1

The next assay deals with T15, α3β1γ2 GABAA receptor (Homo sapiens, UniProt P18505+P34903).
T15 construct: expressed in transfected cells
Described as above. The assay is classed as cell-based. The following applies: in presence of GABA, — = value not measurable. How it is done:
as §1

Another assay deals with T16, α5β1γ2 GABAA receptor (Homo sapiens, UniProt P18505+P31644).
T16 construct: expressed in transfected cells
The description is as above. The following applies: in presence of GABA, — = value not measurable. It is filed as cell-based. As for the experimental part: as §1

The target of a further assay is T17, α6β2γ2 GABAA receptor (Homo sapiens, UniProt P47870+Q16445).
T17 construct: expressed in transfected cells
The assay is described as above. The following applies: in presence of GABA, — = value not measurable. The assay is classed as cell-based. How it is done:
as §1

The target of assay [2] is T18, α4β3δ GABAA receptor (Homo sapiens, UniProt P28472+P48169). The assay is described as above. The assay is classed as cell-based. Also on record: expressed in transfected cells. Particulars: in presence of GABA, — = value not measurable. As for the experimental part:
as §1

A further assay has as its system GABAA receptor subtypes. Description: FLIPR panel of 18 GABAA receptor subtypes. The assay is classed as cell-based. Particulars: for modulating activity across GABAA receptor subtypes tested: 18 subtypes, FLIPR. As for the experimental part: as §1
The results further indicate that the isomeric purity of compositions containing compounds of Formula (I) greatly impacts the utility of such compositions as therapeutic agents.

For assay [3], the target named is picrotoxin binding site of GABAA receptors. The following applies: membranes from cortices of rat brains; Table 1 of WO 2016/061527; read-out: IC50 in the TBPS displacement assay; cited from earlier work.
In assay [4] the target is T9, α1β2γ2 GABAA receptor. The following applies: 10 μM steroid, GABA 2 μM (EC20), LTK cells, Table 2 of WO 2016/061527; cited from earlier work.
Assay [5] has as its target T18, α4β3δ GABAA receptor. Also on record: expressed in transfected cells; host or cells: CHO cells (transient). The following applies: 10 μM steroid, GABA 2 μM (EC20), CHO cells, Table 2 of WO 2016/061527; cited from earlier work.

T18 sequence (P48169 36-554): as the sequence (P48169 36-554) above
T18 sequence (P28472 26-473): as the sequence (P28472 26-473) above
T18 sequence (O14764 25-452 partner): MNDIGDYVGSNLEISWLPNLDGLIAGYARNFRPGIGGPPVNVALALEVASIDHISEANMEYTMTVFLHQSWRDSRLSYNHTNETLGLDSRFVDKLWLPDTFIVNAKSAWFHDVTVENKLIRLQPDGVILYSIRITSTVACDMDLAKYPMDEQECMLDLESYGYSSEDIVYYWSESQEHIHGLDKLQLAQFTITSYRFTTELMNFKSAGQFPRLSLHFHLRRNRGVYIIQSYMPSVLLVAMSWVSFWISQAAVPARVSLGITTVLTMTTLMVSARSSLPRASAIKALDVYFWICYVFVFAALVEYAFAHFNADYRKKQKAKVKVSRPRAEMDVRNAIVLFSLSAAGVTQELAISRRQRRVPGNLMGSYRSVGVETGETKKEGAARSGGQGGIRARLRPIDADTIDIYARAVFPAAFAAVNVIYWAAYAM
T13 sequence (P31644 32-462): as the sequence (P31644 32-462) above
T13 sequence (P47870 25-512 limits assumed): as the sequence (P47870 25-512 limits assumed) above
T13 sequence (P18507 40-475 partner): as the sequence (P18507 40-475 partner) above
T1 sequence (P48169 36-554): as the sequence (P48169 36-554) above
T1 sequence (P18505 26-474): as the sequence (P18505 26-474) above
T1 sequence (P18507 40-475 partner): as the sequence (P18507 40-475 partner) above

Consider `C[C@@]1(O)CC[C@@]2(C)[C@@H](CC[C@@H]3[C@@H]2CC[C@]2(C)[C@@H](C(=O)Cn4cc(C#N)cn4)CC[C@@H]32)C1` [CV-10155, 1-[2-[(3R,5S,8R,9S,10S,13S,14S,17S)-3-hydroxy-3,10,13-trimethyl-1,2,4,5,6,7,8,9,11,12,14,15,16,17-tetradecahydrocyclopenta[a]phenanthren-17-yl]-2-oxoethyl]pyrazole-4-carbonitrile], for which the concentration for a half-maximal effect (EC50) on α4β1γ2 GABAA receptor turned out to be 204 nM; at α2β2γ2 GABAA receptor, 213 nM; at α6β3γ2 GABAA receptor it was 245 nM; on α3β3γ2 GABAA receptor, 273 nM; at α4β3γ2 GABAA receptor, 1330 nM; on α3β2γ2 GABAA receptor, 1820 nM. Further, the EC50 is 520 nM on α1β3γ2 GABAA receptor; 521 nM at α1β1γ2 GABAA receptor; 839 nM on α1β2γ2 GABAA receptor [1]; 359 nM at α6β1γ2 GABAA receptor; 296 nM on α2β3γ2 GABAA receptor; 1300 nM at α5β3γ2 GABAA receptor. Moreover, the EC50 at α5β2γ2 GABAA receptor is 359 nM; on α2β1γ2 GABAA receptor it was 253 nM; on α3β1γ2 GABAA receptor it was 946 nM; at α5β1γ2 GABAA receptor, 762 nM; at α6β2γ2 GABAA receptor it was 1100 nM; at α4β3δ GABAA receptor [2] it was 106 nM. In addition, the “modulating activity across GABAA receptor subtypes tested” value in the assay on GABAA receptor subtypes is listed as “some level of positive allosteric modulating activity in all of the GABAA receptor subtypes tested”. Besides, the “activity on α4β3δ versus α1β2γ2 GABAA receptors” value with GABAA receptor subtypes (comparison of Example 1 data) is given as “substantially more active on α4β3δ GABAA receptors than on α1β2γ2 GABAA receptors”.

With `C[C@@]1(O)CC[C@@]2(C)[C@H](CC[C@@H]3[C@@H]2CC[C@]2(C)[C@@H](C(=O)Cn4cc(C#N)cn4)CC[C@@H]32)C1` [Compound 10], the IC50 in assay [3] is < 10 nM.

In the case of `C[C@@]1(O)CC[C@@]2(C)[C@@H](CC[C@@H]3[C@@H]2CC[C@]2(C)[C@@H](C(=O)Cn4ccc(C#N)n4)CC[C@@H]32)C1` [Compound 121], the half-maximal inhibitory concentration (IC50) in assay [3] was 10 to 50 nM. Also, the “efficacy (relative potentiation of GABA-mediated conductance)” value on α1β2γ2 GABAA receptor [4] and on α4β3δ GABAA receptor [5] was > 500% in each case.

Regarding `C[C@]1(O)CC[C@@]2(C)[C@@H](CC[C@@H]3[C@@H]2CC[C@]2(C)[C@@H](C(=O)Cn4cc(C#N)cn4)CC[C@@H]32)C1` [SPNC-019, reference compound], the concentration for a half-maximal effect (EC50) on α6β3γ2 GABAA receptor was 1770 nM; on α5β3γ2 GABAA receptor it was 1810 nM; at α5β2γ2 GABAA receptor it was 1200 nM. Moreover, the “modulating activity across GABAA receptor subtypes tested” value in the assay with GABAA receptor subtypes is recorded as “no modulating activity in 15 of the 18 GABAA receptor subtypes tested”.

Usually EC50 stands for the concentration that produces a half-maximal response. Broadly, the IC50 is the point on the concentration scale where inhibition reaches its midpoint.
